Assay results published in patent publication US5637591A, “Antimicrobial and anticollagenase activity of phenazine-5, 10-dioxide and derivatives” (Fuji ImmunoPharmaceuticals Corp., priority 1995, dated 1997).
Values after ≈ are worked out from the molar mass of the structure shown. Read-outs that look alike come from different tables or passages of the source.

Key:
[1] = test system: Fusobacterium necrophorum; assay: anaerobic liquid culture growth inhibition, OD 650 nm; assay type: cell-based; settings: anaerobic overnight, OD 650 nm, read-out: IC50 Fusobacterium necrophorum
[2] = test system: Porphyromonas gingivalis RB-22D-1; assay: as above; assay type: cell-based; settings: RB22D1, anaerobic overnight, OD 650 nm, read-out: IC50 Porphyromonas gingivalis RB-22D-1
[3] = test system: Fusobacterium nucleatum; assay: as above; assay type: cell-based; settings: anaerobic overnight, OD 650 nm, read-out: IC50 Fusobacterium nucleatum
[4] = test system: Bacteroides levii; assay: as above; assay type: cell-based; settings: Porphyromonas levii; anaerobic overnight, OD 650 nm; read-out: IC50 Bacteroides levii
[5] = test system: Clostridium perfringens; assay: microbe, parasite or virus in culture; assay type: cell-based; settings: read-out: IC50 Clostridium perfringens
[6] = test system: Porphyromonas gingivalis 2561; assay: anaerobic liquid culture growth inhibition, OD 650 nm; assay type: cell-based; settings: Porphyromonas gingivalis, 2561; anaerobic overnight, OD 650 nm; read-out: IC50 Porphyromonas gingivalis 2561
[7] = test system: P. gingivalis strain 2561; assay: minimum inhibitory concentration by addition to plating medium; assay type: cell-based; settings: for MIC: Porphyromonas gingivalis, 2561, 168 h, read-out: P. gingivalis MIC; for concentration range of activity against P. gingivalis: molar basis; for activity greater than Tetracycline against P. gingivalis: weight-concentration basis
Experimental: (§1) Solutions of the agents were tested for activity against Escherichia coli strain DH5α by a zone inhibition method, and against P. gingivalis strain 2561 by addition to plating medium to determine minimum inhibitory concentrations (M/C). For the zone inhibition study, a suspension of E. coli was spread on the surface of an agar plate. A 3 mm diameter paper disk was placed on the seeded agar surface, and 10 μl of solution of each compound formulated at 1 mg/ml was added to the disk. Plates were incubated overnight at 37° C. The radius of the zone of inhibition was measured from the center of the disk to the edge of the E. coli bacterial lawn. For determination of MIC, drug solutions were mixed with plating medium to produce a range of final drug concentrations. Media with drug were plated in the wells of 24-well plates. A drop of bacterial suspension containing 2-5×10^2 CFU P. gingivalis was placed on each well. Plates were incubated 1 week in an anaerobic chamber at 37° C.

[8] = test system: E. coli (strain B); assay: IC90 in plating medium, 24-well plates; assay type: cell-based; settings: Escherichia coli, rfa
Experimental: (§2) Drug solutions were mixed with plating medium to produce a range of final drug concentrations. Media with drug were plated in the wells of 24-well plates. A drop of bacterial suspension containing 2-5×10^2 CFU was placed on each well. Plates were incubated overnight at 37° C.
(§3) The concentration of the compound necessary to reduce viability of each micro-organism by 90% (inhibitory concentration 90%=IC90) is reported in Table 3 as μg/ml. Bacterial strains are listed in order of decreasing susceptibility to 2-aminophenazine-5,10-dioxide.

[9] = test system: Klebsiella pneumoniae; assay: IC90 in plating medium, 24-well plates; assay type: cell-based
Experimental: as §2, §3

[10] = test system: Staphylococcus aureus; assay: IC90 in plating medium, 24-well plates; assay type: cell-based
Experimental: as §2, §3

[11] = test system: Serratia marsescens; assay: IC90 in plating medium, 24-well plates; assay type: cell-based
Experimental: as §2, §3

[12] = test system: Pseudomonas aeruginosa; assay: IC90 in plating medium, 24-well plates; assay type: cell-based
Experimental: as §2, §3

[13] = test system: Streptococcus faecalis; assay: IC90 in plating medium, 24-well plates; assay type: cell-based; settings: Enterococcus faecalis
Experimental: as §2, §3

[14] = test system: Bacillus cereus; assay: IC90 in plating medium, 24-well plates; assay type: cell-based; settings: 90% inhibition of growth, overnight 37° C.
Experimental: as §2, §3

[15] = test system: Corynebacterium xerosis; assay: IC90 in plating medium, 24-well plates; assay type: cell-based
Experimental: as §2, §3

[16] = test system: Micrococcus luteus; assay: IC90 in plating medium, 24-well plates; assay type: cell-based
Experimental: as §2, §3

[17] = test system: Proteus mirabilis; assay: IC90 in plating medium, 24-well plates; assay type: cell-based
Experimental: as §2, §3

[18] = test system: Enterobacter cloacae; assay: IC90 in plating medium, 24-well plates; assay type: cell-based
Experimental: as §2, §3

[19] = test system: Peptostreptococcus anaerobius; assay: anaerobic liquid culture growth inhibition, OD 650 nm; assay type: cell-based; settings: anaerobic overnight, OD 650 nm, read-out: IC50 Peptostreptococcus anaerobius
[20] = test system: Bacteroides fragilis; assay: as above; assay type: cell-based; settings: anaerobic overnight, OD 650 nm, read-out: IC50 Bacteroides fragilis
[21] = oral bioavailability in rats (AUC versus intravenous); settings: rat, in vivo
Experimental: The bioavailibility of orally delivered substituted phenazine-5,10-dioxideswas measured because oral delivery also can comprise systemic administration. The bioavailibility was assessed for the phenazine-5,10-dioxide derivative, 2-aminophenazine-5,10-dioxide administered by oral gavage to rats. Vehicles and dose levels are detailed in Table 9. Calculations of bioavailability (F) following oral administration were made based on area under the curve (AUC) calculations and comparsion with intravenous administration.

[22] = test system: Escherichia coli strain DH5α; assay: zone inhibition method on agar plate; assay type: cell-based; settings: Escherichia coli; 10 μl of 1 mg/ml on 3 mm paper disk, overnight 37° C.; radius from center of disk; read-out: E. coli Clear Zone
Experimental: as §1

[23] = test system: P. gingivalis; assay: bone loss after oral colonization with P. gingivalis in mice, systemic administration; assay type: in vivo, BALB/c mice; settings: infected mice, IP daily; 25 d (2-methylphenazine-5,10-dioxide) or 40 d (Tetracycline)
Experimental: An animal model for testing the antimicrobial activity of the invention against P. gingivalis was conducted by inducing oral colonization of the microbe in BALB/c mice. Drug (2-methylphenazine-5,10-dioxide or Tetracycline) or control (2.5% cyclodextran) was administered intraperitoneally once each day for 25 days (2-methylphenazine-5,10-dioxide) or 40 days (Tetracycline). On the day following the last dose administration, the rear molars of the mice were swabbed and the swabs incubated in a growth medium to assess the presence of P. gingivalis. Mice were then sacrificed and jaw bones harvested for evaluation of bone loss.

[24] = complete inhibition of growth, 1 week anaerobic, 37° C.

Which results are given for Nc1ccc2c(c1)[n+]([O-])c1ccccc1[n+]2[O-] [2-aminophenazine-5,10-dioxide]?
IC50 [1]: 0.03 µg/mL (≈ 0.132 µM); IC50 [2]: 0.12 µg/mL (≈ 0.528 µM); IC50 [3]: 10 µg/mL (≈ 44 µM); IC50 [4]: 0.03 µg/mL (≈ 0.132 µM); IC50 [5]: 1 µg/mL (≈ 4.4 µM); IC50 [6]: 0.04 µg/mL (≈ 0.176 µM); MIC ([7]; MIC on a molar basis): 0.009 µM; MIC [7, 24]: 0.002 µg/mL; concentration range of activity against P. gingivalis [7]: nanomolar concentration range; activity greater than Tetracycline against P. gingivalis [7]: more than 100 fold; IC90 [8]: 0.31 µg/mL (≈ 1.36 µM); IC90 [9]: 10 µg/mL (≈ 44 µM); IC90 [10]: 0.62 µg/mL (≈ 2.73 µM); IC90 [11]: 10 µg/mL (≈ 44 µM); IC90 [12]: > 10 µg/mL; IC90 [13]: 5 µg/mL (≈ 22 µM); IC90 [14]: 0.31 µg/mL (≈ 1.36 µM); IC90 [15]: 1.25 µg/mL (≈ 5.5 µM); activity against M. luteus [16]: lack of activity; IC90 ([16]; Micrococcus luteus): 10 µg/mL (≈ 44 µM); IC90 [17]: 5 µg/mL (≈ 22 µM); IC90 [18]: > 10 µg/mL; IC50 [19]: 0.06 µg/mL (≈ 0.264 µM); IC50 [20]: 1 µg/mL (≈ 4.4 µM); AUC ([21]; iv, 10 mg/kg, rats, 10 mg/kg IV administration): 390 ng·h/mL; AUC ([21]; po, 50 mg/kg, rats, 50 mg/kg oral, 2% Brij35/water): 1480 ng·h/mL; bioavailability ([21]; po, 50 mg/kg, rats, 50 mg/kg oral, 2% Brij35/water, compared to 10 mg/kg IV, read-out: F (Bioavailability)): 76%; AUC ([21]; po, 50 mg/kg, rats, 50 mg/kg oral, 10% Brij35/Mineral oil): 2380 ng·h/mL; bioavailability ([21]; po, 50 mg/kg, rats, 50 mg/kg oral, 10% Brij35/Mineral oil, compared to 10 mg/kg IV, read-out: F (Bioavailability)): 120%; AUC ([21]; po, 50 mg/kg, rats, 50 mg/kg oral, 10% Brij35/water): 1250 ng·h/mL; bioavailability ([21]; po, 50 mg/kg, rats, 50 mg/kg oral, 10% Brij35/water, compared to 10 mg/kg IV, read-out: F (Bioavailability)): 64%; AUC ([21]; po, 50 mg/kg, rats, 50 mg/kg oral, water): 1740 ng·h/mL; bioavailability ([21]; po, 50 mg/kg, rats, 50 mg/kg oral, water, compared to 10 mg/kg IV, read-out: F (Bioavailability)): 89%; AUC ([21]; po, 60 mg/kg, rats, 60 mg/kg oral, Cremaphor): 103 ng·h/mL; bioavailability ([21]; po, 60 mg/kg, rats, 60 mg/kg oral, Cremaphor, compared to 10 mg/kg IV, read-out: F (Bioavailability)): 4%; AUC ([21]; po, 100 mg/kg, rats, 100 mg/kg oral, Arlacel 83): 2630 ng·h/mL; bioavailability ([21]; po, 100 mg/kg, rats, 100 mg/kg oral, Arlacel 83, compared to 10 mg/kg IV, read-out: F (Bioavailability)): 67%; AUC ([21]; po, 100 mg/kg, rats, 100 mg/kg oral, Encapsin CD): 3520 ng·h/mL; bioavailability ([21]; po, 100 mg/kg, rats, 100 mg/kg oral, Encapsin CD, compared to 10 mg/kg IV, read-out: F (Bioavailability)): 90%; AUC ([21]; po, 100 mg/kg, rats, 100 mg/kg oral, PEG (Polyethyleneglycol)): 3940 ng·h/mL; bioavailability ([21]; po, 100 mg/kg, rats, 100 mg/kg oral, PEG (Polyethyleneglycol), compared to 10 mg/kg IV, read-out: F (Bioavailability)): 100%; zone of inhibition at 1000 µg/mL [22]: 32 mm

For Cc1ccc2c(c1)[n+]([O-])c1ccccc1[n+]2[O-] [2-methylphenazine-5,10-dioxide], which IC50 [1] is on record?
Its IC50 is 1.5 µg/mL (≈ 6.63 µM).

What about the IC50 [2] of the same compound?
Its IC50 is 0.35 µg/mL (≈ 1.55 µM).

What about the “effect of treatment on bone loss” value [23] of the same compound?
The value was “reduced the observed bone loss”.

What about the IC50 [3] of the same compound?
The IC50 was over 10 µg/mL.

And the IC50 [4]?
Its IC50 is 1 µg/mL (≈ 4.42 µM).

What about the IC50 [5] of the same compound?
The IC50 was 1 µg/mL (≈ 4.42 µM).

What about the IC50 [6] of the same compound?
The IC50 was 0.16 µg/mL (≈ 0.707 µM).

What about the MIC ([7]; MIC on a molar basis) of the same compound?
Its MIC is 0.018 µM.

And the MIC [7, 24]?
Its MIC is 0.004 µg/mL.

What about the “concentration range of activity against P. gingivalis” value [7] of the same compound?
The value was “nanomolar concentration range”.

What about the “activity greater than Tetracycline against P. gingivalis” value [7] of the same compound?
The value was “more than 100 fold”.

And the IC50 [19]?
The IC50 was 0.2 µg/mL (≈ 0.884 µM).

And the IC50 [20]?
Its IC50 is 7 µg/mL (≈ 30.9 µM).

And the bioavailability ([21]; po, 80 mg/kg, Rats, 80 mg/kg PO, 10% Cremaphor (Table 8 footnote 1), read-out: F)?
Its bioavailability is about 2%.

And the bioavailability ([21]; po, 100 mg/kg, Rats, 100 mg/kg PO, 2% Brij 35 (Table 8 footnote 4), read-out: F)?
The bioavailability was about 100%.

And the bioavailability ([21]; po, 100 mg/kg, Rats, 100 mg/kg PO, 10% Arlacel 83/Corn Oil (Table 8 footnote 3), read-out: F)?
Its bioavailability is about 37%.

What about the bioavailability ([21]; po, 100 mg/kg, Rats, 100 mg/kg PO, 100% PEG400 (Table 8 footnote 2), read-out: F) of the same compound?
Its bioavailability is about 50%.

What about the bioavailability ([21]; po, 100 mg/kg, Rats, 100 mg/kg PO, Encapsin CD (Table 8 footnote 2), read-out: F) of the same compound?
The bioavailability was about 50%.

What about the zone of inhibition at 1000 µg/mL [22] of the same compound?
Its zone of inhibition at 1000 µg/mL is 19 mm.
